Assay results published in patent US8680014B2, “Methods for improving fruit production and fruit quality” (Washington State University Research Foundation, priority 2010, dated 2014).
“Also recorded” adds a separate entry of the source. Marks after values point to notes of the source that are not given here.

Tests used:
[1] = tested on: ‘Fuji’ apple trees; assay: BABA at different bud development stages; branches in programmable freeze chamber five days later; format: in vivo, apple (Malus domestica); conditions: treated 5 days before cold exposure; all developmental stages, except for full opened flowers; compared to control
Protocol: BABA was also applied to ‘Fuji’ apple trees at different bud development stages. Five days later, treated and untreated (control) branches were collected and placed in a programmable freeze chamber. Flowers killed were evaluated as described above. BABA decreased the percentage of flowers killed as compared to control at all developmental stages, except for full opened flowers (FIG. 2).

[2] = tested on: sweet cherry cultivar ‘Bing’; assay: Autumn application of BABA, natural frost damage the following spring; format: in vivo, sweet cherry (Prunus avium)
Excerpt: (§1) Application of BABA to sweet cherry cultivars ‘Bing,’ ‘Chelan,’ and ‘Van’ in autumn decreased the percentage of flowers killed after natural frost damage the following spring (FIG. 3). […] Bing after spring frost damage (FIG. 4).

[3] = tested on: sweet cherry cultivar ‘Van’; assay: as above; format: in vivo, sweet cherry (Prunus avium)
Excerpt: as §1

[4] = tested on: sweet cherry cultivar ‘Chelan’; assay: as above; format: in vivo, sweet cherry (Prunus avium)
Excerpt: as §1

[5] = tested on: Sweet cherry cv. ‘Bing’ trees; assay: BABA spray in the field; flower fate of limbs in programmable freeze chamber; fruit set, fruit size, leaf area, leaf chlorophyll on other limbs; format: in vivo, sweet cherry (Prunus avium)
Protocol: Sweet cherry cv. ‘Bing’ trees were sprayed in the field with BABA and the fate of flowers from randomly selected sample limbs placed in a programmable freeze chamber was evaluated. Random limbs were removed from the freeze chamber within 10 minutes of reaching selected air temperatures, and were left at room temperature for 1 hour. Pistil/ovary survival was then assessed visually on every flower. Flowers with healthy green stylar and ovary tissue were rated as live. Flowers with discolored (for example, brown) stylar or ovary tissues were rated as dead. Fruit set, fruit size, average leaf area, and leaf chlorophyll content index were evaluated on other limbs of the treated trees.

[6] = tested on: plum cv. ‘PP7524-7’; assay: BABA application in the spring 4-7 days prior to frost exposure; format: in vivo; conditions: application 4-7 days prior to frost; following spring frost damage
Excerpt: Finally, BABA application in the spring 4-7 days prior to frost exposure increased fruit set in plum cv. ‘PP7524-7’ following spring frost damage (FIG. 5).

[7] = tested on: sweet cherry cv. ‘Bing’; assay: CPA applied at full bloom; fruit set and fruit size at harvest; format: in vivo, sweet cherry (Prunus avium)
Protocol: Plant growth regulators were applied to limbs of sweet cherry cv. ‘Bing’ at full bloom when essentially all flowers were open. Fruit set was recorded as a percent of available flowers from flower counts made prior to application and fruit counts made just prior to harvest. Fruit set in trees treated with 4-chlorophenoxyacetic acid (CPA) at 10 or 30 ppm was higher than untreated control in both small and large scale trials (FIG. 18). […] (Table 2).

[8] = tested on: sweet cherry cultivar ‘8011-3’; assay: as above; format: in vivo, sweet cherry (Prunus avium); conditions: 30 ppm CPA at full bloom
[9] = tested on: sweet cherry cultivar ‘Tieton’; assay: as above; format: in vivo, sweet cherry (Prunus avium); conditions: 30 ppm CPA at full bloom
[10] = tested on: sweet cherry cv ‘Bing’ on ‘Gisela® 1’ rootstock; assay: Experiment 1: limb trial of PCa and GAs alone or in combination, applied 30 days after anthesis; format: in vivo, sweet cherry (Prunus avium); conditions: for Firmness / Fruit diameter / Fruit weight / TSS: applied at 30 days after anthesis, PCa 150 mg/L, GAs 30 mg/L, at harvest
Protocol: (§2) A limb trial was conducted to evaluate effects of bioactive gibberellins (GA), prohexadione-calcium (PCa), or combinations applied before harvest on fruit quality of sweet cherry. The most efficacious treatments were utilized in a larger scale trial to investigate their effects on the whole tree scale and postharvest characteristics of fruit. Twelve-year-old sweet cherry cv ‘Bing’ on ‘Gisela® 1’ rootstock was selected for both experiments and trained to a central leader architecture. Both trials were carried out at Washington State University Roza farm, Prosser, Wash., USA (N 46.2°, W 119.7°).
Three limbs with uniform vigor were selected from each of 10 trees. Treatments were applied to the limbs randomly spread across ten trees at 30 days after anthesis, approximately coinciding with the onset of pit hardening (stage II of fruit development) in ‘Bing’. The experiment consisted of 10 treatments, including water (the untreated control) and PCa at 150 mg/L. Bioactive GA1, GA3, and GA4/7 (70:30 GA4:GA7) were applied as a foliar spray at 30 mg/L alone or in combination with PCa at 150 mg/L. In addition, the combination of GA3 and GA4/7 at 30 mg/L was applied, or in combination with PCa at 150 mg/L. PCa was the commercial product Apogee® (27.5% PCa; BASF Corp., Research Triangle Park, N.C.) and all bioactive GAs (purity >90%) were purchased from OlChemIm Ltd. (Olomouc, Czech Republic). Each treatment was made with a pressurized handgun sprayer to entire limbs, ceasing at the first runoff.
Twenty fruit per treatment were randomly selected and flagged for monitoring fruit growth by measuring fruit equatorial diameter and height weekly after treatment. All current-season shoots on treated limbs were measured weekly to investigate treatment effects on shoot growth. Harvest timing was determined as the day when the majority of fruit had achieved commercial maturity, based on exocarp color. At harvest, all fruit on treated limbs were harvested and transported to the laboratory for fruit quality analysis. Floral bud density on the treated limbs was assessed by counting all spurs and the number of reproductive buds per spur.
All fruit from each limb in Experiment 1 and sub-samples from Experiment 2 were weighed individually and fruit size distribution was calculated according to fruit weight. Color sorting was conducted manually according to the color comparators developed by CTIFL (Centre Technique Interprofessionnel des Fruit et Legumes, France), which categorize cherry color into 8 levels from Green, CTIFL 1 to CTIFL 7. Fruit number in each category was counted and color distribution was assessed. Subsequently, all fruit were analyzed for firmness and row size measurement with a FirmTech 2 (BioWorks, Inc, Wamego, Kans.) at room temperature. Then, 25 fruit were randomly selected and 5 groups of 5 fruit were mixed for soluble solids content, pH and titratable acidity measurement. Fruit soluble solids were measured using a digital refractometer (Atago, Japan). Approximately 0.5 mL of juice was dropped directly onto the surface of the refractometer and the measurement immediately taken. Juice pH and titratable acidity were measured with a Mettler DL12 Titrator (Mettler-Toledo, Columbus, Ohio).
All trials were established as randomized complete-block designs. All data were subjected to analysis of variance using the General Linear Models (GLM) program of the SAS statistical analysis package (SAS Institute, Cary, N.C.).

[11] = tested on: sweet cherry cv ‘Bing’ on ‘Gisela® 1’ rootstock; assay: Experiment 2: whole tree trial of PCa alone or with GA3 or GA4/7, applied 30 (FS) or 37 (SS) days after anthesis; fruit quality, storability, sensory analysis; format: in vivo, sweet cherry (Prunus avium)
Protocol: as §2
Experiment 2 included treatments at the whole tree level. Applications of GA3 or GA4/7 (70:30 GA4:GA7) were made to entire trees at 30 mg/L in combination with PCa at 150 mg/L. PCa (150 mg/L) alone was also applied and an untreated control treatment was included. To investigate the role of application timing of plant growth regulators, all treatments were applied at 30 (first spray (FS)) or 37 days after anthesis (second spray (SS)). In this experiment, 24 trees in the same orchard as those in Experiment 1 were selected for whole tree treatment and assigned randomly into one of two 12-tree groups for the timing study. Treatments were then randomly assigned to each of three trees per application timing. Treatments were applied to entire trees by pressurized handgun sprayer to the point of first runoff. All applications were completed in the morning between 0800 and 1100, and applied on days with little or no wind. To prevent spray drift onto neighboring experimental units, all the trees were selected in the same row and 2-3 trees were selected as ‘border’ trees between experimental units.
Twenty fruit per treatment were marked for weekly fruit size measurement, and six current terminal shoots were selected for monitoring shoot growth weekly after treatment. […] Whole tree yield was determined at harvest, in the field, with a portable digital scale. The effect of treatment on total yield per tree (kg tree^−1) and the yield of large fruit (29.8 mm+) (kg tree^−1) was assessed. […]
All fruit from each limb in Experiment 1 and sub-samples from Experiment 2 were weighed individually and fruit size distribution was calculated according to fruit weight. […] Fruit number in each category was counted and color distribution was assessed. Subsequently, all fruit were analyzed for firmness and row size measurement with a FirmTech 2 (BioWorks, Inc, Wamego, Kans.) at room temperature. […] Fruit soluble solids were measured using a digital refractometer (Atago, Japan). […] Juice pH and titratable acidity were measured with a Mettler DL12 Titrator (Mettler-Toledo, Columbus, Ohio). […]

[12] = BABA at both concentrations (100 and 500 ppm), compared to control

In the case of `CC(N)CC(=O)O` (racemic) [BABA, DL-β-aminobutyric acid], the “percentage of flowers killed” value [1] is reported as “decreased”, the pistil survival ([2]; after spring frost damage) is reported as “increased” and the “percentage of flowers killed” value ([2]; natural frost the following spring) is reported as “decreased”. For the same molecule, the “percentage of flowers killed” value [3] was “decreased”, the “percentage of flowers killed” value [4] was “decreased” and the “percentage of flowers killed” value ([5]; 100 ppm BABA, −3.5° C. and −4.5° C., compared to control (untreated) trees) was “decreased”. The “percentage of flowers killed” value ([5]; 500 ppm BABA, compared to control) was “decreased”, the average leaf area [5, 12] was “increased” and the fruit set [5, 12] was “increased”. The fruit size [5, 12] was “increased”, the “leaf chlorophyll content index” value [5, 12] was “increased” and the fruit set [6] was “increased”.
`O=C(O)COc1ccc(Cl)cc1` [4-CPA, 4-chlorophenoxyacetic acid] was tested, and the “fruit set compared with untreated control” value ([7]; CPA at 10 or 30 ppm at full bloom, small and large scale trials (FIG. 18)) was “higher”, the “Fruit Set (%)” value ([7]; ‘Bing’, 30 ppm CPA applied to the flowers at full bloom, untreated 30.0) was 58.0% and the “Average fruit size” value ([7]; ‘Bing’, 30 ppm CPA at full bloom, at harvest, untreated 7.3) was 8.4 g. The “Average fruit size” value ([8]; at harvest, untreated 10.5) was 13.6 g, the “Fruit Set (%)” value ([8]; untreated 7.0) was 16.0% and the “Average fruit size” value ([9]; at harvest, untreated 7.2) was 8.6 g. For the same molecule, the “Fruit Set (%)” value ([9]; untreated 26.0) was 35.0%.
For `C=C1C[C@]23C[C@@]1(O)CC[C@H]2[C@@]12CC[C@H](O)[C@@](C)(C(=O)O1)[C@H]2[C@@H]3C(=O)O` [GA1, gibberellin A1], the Firmness [10] was 280.2^c g/mm, the Fruit diameter [10] was 26.52^bc mm and the Fruit weight [10] was 8.44^bc g. The TSS [10] was 20.84^b Brix.
In the case of `C=C1C[C@]23C[C@@]1(O)CC[C@H]2[C@@]12C=C[C@H](O)[C@@](C)(C(=O)O1)[C@H]2[C@@H]3C(=O)O` [GA3, gibberellin A3], the Firmness [10] is reported as 316.9^a g/mm, the Fruit diameter [10] is reported as 26.49^bc mm and the Fruit weight [10] is reported as 8.23^cd g. The TSS [10] was 22.23^a Brix.
`CCC(=O)C1=C(O)CC(C(=O)O)CC1=O` (stereo not shown) [PCa, calcium 3-oxido-4-propionyl-5-oxo-cyclohexene carboxylate] was tested, and the “fruit categorized as healthy after storage” value ([11]; 30 days at 4° C., spray timing not stated, 5% for untreated trees) was < 10%, the “increase in fruit in the ≧10 g category compared to the control” value ([11]; both first and second spray timings) was 15% and the “percentage of fruit with green and turgid pedicels after storage” value ([11]; first spray treatments, control 30%) was 24%. For the same molecule, the “shoot growth / vegetative extension growth” value ([11]; single spray, irrespective of timing, compared with the control and PCa+GAs) was “reduced; also recorded: reductions”, the Firmness [10] was 278.3^c g/mm and the Fruit diameter [10] was 24.75^f mm. For the same molecule, the Fruit weight [10] was 7.26^f g, the TSS [10] was 19.18^cd Brix and the “effect on fruit weight / fruit size compared with the untreated control” value ([10]; limb trial, single application at 30 days after anthesis) was “no positive effect”. For the same molecule, the “length of current season extension shoots relative to untreated” value ([10]; single application, after terminal bud set (FIG. 8)) was “less than half the length”.
